# Data: ChEMBL document CHEMBL3217463, “Design, synthesis and biological evaluation of -lactam hydroxamate based TACE inhibitors” (Medchemcomm, 2011)
# Test system: Blood
# Experiment: Antiinflammatory activity in human whole blood assessed as inhibition of LPS-induced TNFalpha secretion by ELISA
# Type: functional, tissue-based
row,Structure (SMILES),IC50
1,CC(C)C[C@H](C(=O)NO)N1CC[C@@](N)(c2ccc(OCc3cc(CCOC(C)C)nc4ccccc34)cc2)C1=O,130 nM
2,CC(C)C[C@H](C(=O)NO)N1CC[C@@](N)(c2ccc(OCc3cc(Cl)nc4ccccc34)cc2)C1=O,450 nM
3,CC(C)C[C@H](C(=O)NO)N1CC[C@@](N)(c2ccc(OCc3cc(C(C)C)nc4ccccc34)cc2)C1=O,140 nM
4,COCc1cc(COc2ccc([C@]3(N)CCN([C@H](CC(C)C)C(=O)OC)C3=O)cc2)c2ccccc2n1,3000 nM
5,COc1ccc(-c2cc(COc3ccc([C@]4(N)CCN([C@H](CC(C)C)C(=O)NO)C4=O)cc3)c3ccccc3n2)cc1,250 nM
6,COCc1cc(COc2ccc([C@]3(N)CCN([C@H](CC(C)C)C(=O)O)C3=O)cc2)c2ccccc2n1,3230 nM
7,CC(C)C[C@H](C(=O)NO)N1CC[C@@](N)(c2ccc(OCc3cc(COC(C)C)nc4ccccc34)cc2)C1=O,123 nM
8,Cc1cccc(-c2cc(COc3ccc([C@]4(N)CCN([C@H](CC(C)C)C(=O)NO)C4=O)cc3)c3ccccc3n2)c1,3880 nM
9,Cc1ccc(-c2cc(COc3ccc([C@]4(N)CCN([C@H](CC(C)C)C(=O)NO)C4=O)cc3)c3ccccc3n2)cc1,2900 nM
10,CC(C)C[C@H](C(=O)NO)N1CC[C@@](N)(c2ccc(OCc3cc(-c4ccc(Cl)cc4)nc4ccccc34)cc2)C1=O,286 nM
11,CC(C)C[C@H](C(=O)NO)N1CC[C@@](N)(c2ccc(OCc3cc(C(F)(F)F)nc4ccccc34)cc2)C1=O,470 nM
